Read-outs that look alike come from different tables or passages of the source.
Key:
Assay type in all cases: biochemical
[1] = target: T1, horseradish peroxidase variant HRP N13D/N57S/N175S/N255D/N268D, produced in E. coli (Armoracia rusticana, UniProt P00433, N205S/N285D/N298D/N43D/N87S)
T1 construct: made in house
Protocol: (§1) Plant HRP Type VI-A (Cat. No.: P6782) was obtained from Sigma-Aldrich (St. Louis, MO, USA). All HRP variants produced in E. coli consisted of the sequence as set forth in SEQ ID NO: 2 with the indicated mutations unless specified otherwise.
(§2) For measurements with 3,3',5,5'-tetramethylbenzidine (TMB) as substrate, the reaction mixture in each well of the 96-well plate contained a saturating hydrogen peroxide concentration of 1 mM and varying TMB concentrations (20 - 550 µM) in 50 mM phosphate-citrate buffer pH 5 in a final volume of 200 µL. Protein sample (5 µL) was mixed with 175 µl TMB-buffer mixture and the reaction was started with 20 µl hydrogen peroxide solution (10 mM). The increase in absorption was followed at 652 nm for 60s at 30 °C in a Tecan Infinite M200 PRO instrument. The kinetic parameters were calculated using Sigma Plot software (Systat Software INC., San Jose, CA, USA) and an extinction coefficient of ε652 = 39 mM^-1 cm^-1 (see Josephy, et al. "The horseradish peroxidase-catalyzed oxidation of 3, 5, 3', 5'-tetramethylbenzidine. Free radical and charge-transfer complex intermediates." Journal of Biological Chemistry 257.7 (1982): 3669-3675).
(§3) The increase in absorption was followed at 420 nm for 120 s at 30 °C in a Tecan Infinite M200 PRO instrument. The kinetic parameters were calculated using Sigma Plot software (Systat Software INC., San Jose, CA, USA) and an extinction coefficient of ε420 = 36 mM^-1 cm^-1 (see Childs and Bardsley. "The steady-state kinetics of peroxidase with 2, 2'-azino-di-(3-ethyl-benzthiazoline-6-sulphonic acid) as chromogen." Biochemical Journal 145.1 (1975): 93-103).
as §3

[2] = target: T2, horseradish peroxidase variant HRP N13D/N57S/P146Q/N175S/N255D/N268D/N275K (mHRP, SEQ ID NO: 4), produced in E. coli (Armoracia rusticana, UniProt P00433, N205S/N285D/N298D/N305K/N43D/N87S/P176Q)
T2 construct: made in house
Protocol: as §1, §2, §3, §3

[3] = target: T3, plant-derived HRP (pHRP), Plant HRP Type VI-A, horseradish peroxidase (Armoracia rusticana, UniProt P00433); assay: Enzyme kinetic parameters, 96-well plate assay; settings: substrate TMB (20 - 550 µM), 1 mM H2O2, 50 mM phosphate-citrate buffer pH 5, 30 °C; Table 6
T3 construct: The plant-derived enzyme undergoes post-translational modifications, resulting inter alia in a free N-terminus without an appended methionine; purchased Sigma-Aldrich P6782; host or cells: extracted from the plant
T3 sequence (P00433 31-338 limits assumed): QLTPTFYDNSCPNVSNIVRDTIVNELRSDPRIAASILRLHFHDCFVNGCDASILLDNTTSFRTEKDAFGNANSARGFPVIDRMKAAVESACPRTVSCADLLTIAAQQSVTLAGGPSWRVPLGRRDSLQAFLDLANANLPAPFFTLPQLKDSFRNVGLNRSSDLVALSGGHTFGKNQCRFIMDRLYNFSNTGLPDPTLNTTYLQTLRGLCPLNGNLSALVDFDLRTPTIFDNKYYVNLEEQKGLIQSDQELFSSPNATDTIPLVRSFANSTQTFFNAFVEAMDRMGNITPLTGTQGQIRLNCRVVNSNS
Protocol: as §1, §2
(§4) The increase in absorption was followed at 420 nm for 120 s at 30 °C in a Tecan Infinite M200 PRO instrument. […]

[4] = target: T4, horseradish peroxidase, wild-type HRP (rHRP, variant C1A, SEQ ID NO: 2), produced in E. coli (Armoracia rusticana, UniProt P00433); assay: Enzyme kinetic parameters, 96-well plate assay; settings: substrate TMB (20 - 550 µM), 1 mM H2O2, 50 mM phosphate-citrate buffer pH 5, 30 °C; Table 6
T4 construct: made in house
T4 sequence (P00433 with tags, fused parts or gaps): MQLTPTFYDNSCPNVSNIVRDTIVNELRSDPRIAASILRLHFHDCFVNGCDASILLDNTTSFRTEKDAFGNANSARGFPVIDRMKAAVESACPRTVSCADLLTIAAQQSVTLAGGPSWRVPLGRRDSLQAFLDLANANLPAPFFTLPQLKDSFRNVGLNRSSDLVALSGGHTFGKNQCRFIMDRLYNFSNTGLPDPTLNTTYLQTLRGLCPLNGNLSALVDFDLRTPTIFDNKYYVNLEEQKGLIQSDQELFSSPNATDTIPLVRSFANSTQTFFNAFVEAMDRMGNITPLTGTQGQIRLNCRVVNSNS
Protocol: as §1, §2, §4

[5] = substrate H2O2 (0.001 - 1 mM), 10 mM ABTS, 50 mM phosphate-citrate buffer pH 5, 30 °C, Table 3

T2 sequence (P00433 31-338 N43D/N87S/P176Q/N205S/N285D/N298D/N305K): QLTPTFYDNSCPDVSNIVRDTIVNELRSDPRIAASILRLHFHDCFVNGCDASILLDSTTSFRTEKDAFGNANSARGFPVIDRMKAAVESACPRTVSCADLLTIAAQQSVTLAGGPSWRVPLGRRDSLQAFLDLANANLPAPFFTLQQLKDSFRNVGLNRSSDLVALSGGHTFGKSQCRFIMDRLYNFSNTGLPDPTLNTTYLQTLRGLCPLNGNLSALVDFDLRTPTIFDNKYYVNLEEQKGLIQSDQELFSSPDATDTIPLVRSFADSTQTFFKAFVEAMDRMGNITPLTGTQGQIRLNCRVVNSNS
T1 sequence (P00433 31-338 N43D/N87S/N205S/N285D/N298D): as the sequence (P00433 31-338 N43D/N87S/P176Q/N205S/N285D/N298D/N305K) above, with Q146P, K275N counted along it

Work on `Cc1cc(-c2cc(C)c(N)c(C)c2)cc(C)c1N` [TMB, 3,3',5,5'-tetramethylbenzidine] yielded a kcat ([1]; substrate TMB (20 - 550 µM), 1 mM H2O2, 50 mM phosphate-citrate buffer pH 5, 30 °C, Table 2) of 3236 ± 193 s⁻¹, a kcat ([2]; substrate TMB (20 - 550 µM), 1 mM H2O2, 50 mM phosphate-citrate buffer pH 5, 30 °C, Table 2 (Example 3)) of 4342 ± 292 s⁻¹ and a kcat ([2]; substrate TMB (20 - 550 µM), 1 mM H2O2, 50 mM phosphate-citrate buffer pH 5, 30 °C, Table 6 (Example 4)) of 4293 ± 171 s⁻¹. The kcat [3] was 4343 s⁻¹ and the kcat [4] was 4169 ± 207 s⁻¹.

Work on `OO` [H2O2, hydrogen peroxide] yielded a kcat [1, 5] of 1152 s⁻¹ and a kcat [2, 5] of 1344 ± 22 s⁻¹.

Reference: patent publication EP3885436A1, “POLYPEPTIDES WITH PEROXIDASE ACTIVITY” (Technische Universität Wien, priority 2020, dated 2021)
